Measured values as given in patent US7312323B2, “Enzymes and polynucleotides encoding the same” (The Horticulture and Food Research Institute of New Zealand …, priority 2002, dated 2007).

Key:
[1] = Thermal rearrangement, pentane extracts from purified protein injected at different port temperatures; type: physicochemical
Experimental: Dynamic headspace methods were also used to collect the headspace volatiles from the purified extracts on to 100 mg Chromosorb 105 adsorbent traps. The protein was placed into 50 mL Quickfit® test tubes, which were fitted with a headspace adaptor with an air inlet and outlet. Volatiles were collected onto the Chromosorb 105 adsorbent traps, which were fitted to the air outlet port of each adaptor. The volatiles were purged from the vessel onto the traps with clean air at 50 mL min^−1 for 18 hours. The traps were stored at −15° C. for up to one week, and then subjected to GC-FIDIMS analysis. Finally, pentane extracts were taken from the purified extracts. An aliquot (2.5 ml) of pentane was added to the purified extracts and was left to extract for 18 hours. The pentane was removed and then concentrated with a stream of N2 gas. This was then injected onto the GC-MS at 150° C.
More light can be shed on the possibility of rearrangement of the products using pentane extraction.
In an experiment to test for thermal rearrangement, injections of pentane extract from purified protein were made at temperatures of 125, 150 and 210° C.; or pentane extract from Actinidia flowers were made at temperatures of 100, 125, 150 and 210° C. […] Germacrene B modulated slightly in response to temperature shifts although no gamma-elemene was found as might be predicted. In addition the predicted precursor for delta elemene—germacrene C (Feger et al., Flavour and Fragrance Journal 15: 170-173 (2000)) was not detected at any time. Germacrene A was also not detected at any time. […] Elemol may arise from further rearrangements of delta-elemene or from other elemene sources or from hedycaryol (Chamblee et al., J. Essent. Oil Res. 9: 127-132 (1997)). No GC-MS traces in any experiments indicated evidence for germacrene-C or for hedycaryol.

Periplanata americana L. = conditions: Nishino et al. 1977; cited from earlier work
[2] = Bülow and König 2000; cited from earlier work
[3] = Thermal rearrangement, pentane extracts from Actinidia flowers injected at different port temperatures; type: physicochemical
Experimental: Whole flowers of the same plants were also harvested at anthesis in 2000. 18.6 g and 21 g of flowers from a mixture of developmental stages were placed in 2× Quickfit® Erlenmeyer flasks as above. Volatiles were collected onto a Chromosorb adsorbent trap in duplicate, after the system had been equilibrated for 30 min at room temperature (ca. 23° C.), by purging onto the trap with clean air at 25 mL min^−1 for 60 minutes. The trap was stored at −15° C. for one week and then analysed by GC-FD/MS. The same petals (1.99 g) were then extracted with pentane-ether (2 ml) and stored at −20° C. until analysed. The pentane (GPR, BDH) had been purified by distillation and by passing through a column of activated alumina. Pentane extracts were reduced by rotary evaporation and were dried by passing through a small column of anhydrous MgSO4 before the volume was reduced to ca. 50 μL under a gentle stream of nitrogen. The extract was analysed by GC-FID/MS.
GC-MS Analysis of dynamic headspace samples and pentane extracts: Volatile compounds were thermally desorbed from the headspace traps at 150° C. and were cryo-focussed at the beginning of the GC column (Young, 1981). The column outlet was split between the GC (Hewlett Packard 5890) FID detector (for quantitation) and VG-70SE (VG-Micromass, Manchester, U.K.) mass spectrometer (for component identification) with an electron impact ionisation of 70 eV. Separations were carried out in a 30 m×0.32 mm i.d., 0.5 μn DBWax capillary column (J & W Scientific, Folsom, USA), starting at 30° C. for 6 min, increasing by 3° C. min^−1 to 102° C., 5° C. min^−1 to 210° C. and held for 5 min. Injector temperature was 210° C. The carrier gas was He at a flow rate of ˜30 cm s^−1, and the FID and mass spectrometer transfer line were at 210° C. Quantification of compounds was carried out using an average detector response based on methyl butanoate, ethyl butanoate, hexanol and methyl benzoate. Components were identified by comparison with spectra in the mass spectral database (NIST 1998, Wiley 7 and an in-house database), retention indices (in-house database) and in some cases direct GC-MS comparison with authentic standards. Separations for the earlier 2000 samples were carried out in the same manner as above except the programme started at 30° C. for 6 min, increasing by 3° C. min^−1 to 102° C., 5° C. min^−1 to 190° C. and held for 5 min. Analysis of the pentane extract used a programme of 2 min at 40° C., 5° C. min^−1 to 200° C., 15° C. m^−1 to 240° C. and held for 20 min. For genotype 32-10-07a: the GC-MS was programmed to start at 30° C. for 2 min, increasing by 3° C. min^−1 to 50° C., 5° C. min^−1 to 130° C., 10° C. min^−1 to 240° C. and held for 2 min. Injector temperature was 240° C.
In an experiment to test for thermal rearrangement, injections of pentane extract from purified protein were made at temperatures of 125, 150 and 210° C.; or pentane extract from Actinidia flowers were made at temperatures of 100, 125, 150 and 210° C.

Heliothis virescens = conditions: Mozuraitis et al. 2002; cited from earlier work
[4] = test system: multifunctional germacrene D synthase (EST75565); assay: Sesquiterpene products of purified recombinant protein + FDP, headspace trapping GC-MS; type: biochemical, Actinidia deliciosa
Experimental: Characterization of multifunctional germacrene D synthase from bacterial extracts and purified recombinant protein: E. coli BL21-Plus™-RIL cells harbouring pET-30a75565 were grown overnight at 37° C. in Lauria-Bertani media supplemented with 30 μg ml^−1 kanamycin and 34 μg ml chloramphenicol^−1. 5 mL aliquots of overnight culture were used to inoculate 4×300 mL of fresh 2× YT medium supplemented with 30 μg ml^−1 kanamycin and 34 μg ml^−1 chloramphenicol in 1 L baffled flasks. Cultures were grown at 37° C. with vigorous agitation to A600=0.8, then removed to 4° C. to equilibrate to 16° C. before induction with 0.3 mM IPTG. Following induction, cultures were immediately transferred to a 16° C. incubator and allowed to grow for a further 24 hours with continuous agitation and then harvested by centrifugation (2000×g for 10 min). […]
The headspace in the testubes was collected immediately after the addition of FDP (or GDP) and hexadecane (internal standard) using solid phase micro extraction (SPME). […] The background was analysed for contamination using GC-FID (HP5890) prior to use. […]
The volatiles were desorbed from the fibres in the GC injection port for 10 minutes at 220° C. for the Carbowax/DVB fibres. […] Semi-quantitative data was obtained by measuring sample peak area relative to hexadecane internal standard. […]

[5] = test system: multifunctional germacrene D synthase; assay: Headspace volatiles above E. coli BL21 cultures harbouring pET30a75565, PDMS/DVB SPME; type: cell-based, Actinidia deliciosa; conditions: bacterial cultures
Experimental: Expression and characterization of multifunctional germacrene D synthase from bacterial cultures: E. coli BL21-Plus™-RIL cells harbouring pET30a75565, or empty pET30a vector as a control, were grown overnight at 37° C. in Luria-Bertani media supplemented with 30 μg/mL kanamycin and 50 μg/mL chloramphenicol. […] of overnight culture was used to inoculate 50 mL of fresh 2× YT medium supplemented with 30 μg/mL kanamycin and 50 μg/mL chloramphenicol. […] The culture was immediately transferred to an incubator set at 16° C., 30° C. or 37° C. depending on the experiment The headspace in the vessels above the bacterial cultures was collected immediately after the addition of FDP (or GDP) and hexadecane (the internal standard) using solid phase micro extraction (SPME). […] The background was analysed for contamination using GC-FID (HP5890) prior to use. The headspace volatiles were collected for ˜20 hours at 30° C. with continuous agitation (110 rpm). Prior to analysis using a GC-FID/MS, the fibres were stored at ambient temperature in septum sealed glass vials. The PDMS/DVB fibres were desorbed in the injector at 260° C.

[6] = injection port temperature 125 °C
[7] = injection port temperature 150 °C
[8] = injection port temperature 210 °C

SMILES	Peak Area [1, 6]	Peak Area [1, 7]	Peak Area [1, 8]	effect on male cockroach (Periplanata americana L.)	temperature up to which stable [2]	Peak Area ([3]; injection port temperature 100 °C)	Peak Area [3, 6]	Peak Area [3, 7]	Peak Area [3, 8]	effect on moth behaviour (Heliothis virescens)	products on addition of GDP instead of FDP [4]	products on addition of GDP instead of FDP [5]
C=C1C=CC(C(C)C)CCC(C)=CCC1 (stereo not drawn) [Germacrene D, 7-iso-propyl-10-methyl-4-methylene-cyclodeca-5,10-diene]	4.22 × 10^6	4.90 × 10^6	3.91 × 10^6	sex stimulant	up to 180 °C	2.85 × 10^7 ^	3.78 × 10^7	3.87 × 10^7	2.42 × 10^7	increase attraction of and oviposition		
CC(C)=CCC/C(C)=C/COP(=O)(O)OP(=O)(O)O [GDP, geranyl diphosphate]											did not produce any germacrene D	did not result in the production of any monoterpenes
